{"source": "patent US6025471A", "about": "“Diazaspiro, azepino and azabicyclo therapeutic peptides” (priority 1998, dated 2000)", "key": {"[1]": {"tested_on": "growth hormone deficient rats", "settings": "cited from earlier work"}, "human heart membranes": {"tested_on": "human heart membranes", "assay": "binding of peptides on human heart membranes (displacement of radiolabelled peptide)", "settings": "FIG. 1", "description": "The binding abilities of certain peptides according to the invention compared to conventional peptides on human heart membranes are shown in FIG. 1. […]\nPeptide A is in accordance with the invention, while peptides B-F are comparative. As shown in the figure, peptide A provided inhibition (i.e., displacement) of ^125 I-Tyr-Ala-His-D-Mrp-Ala-Trp-D-Phe-Lys-NH2 in a proportion of about 75%, whereas peptides B-F only provided about 5 to less than 35%. The greater binding affinities for the peptides of the invention illustrate that these peptides directly operate on specific receptors of heart tissue to achieve normalization of cardiac pressure."}}, "note": "Where a SMILES comes first, the peptide text is derived from it. [ ]: non-standard residue; d: D form. dTrp(2-Me) = Cc1[nH]c2ccccc2c1C[C@@H](N)C(=O)O", "data": [{"compound": "Cc1[nH]c2ccccc2c1C[C@@H](NC(=O)[C@@H](N)Cc1cnc[nH]1)C(=O)N[C@@H](C)C(=O)N[C@@H](Cc1c[nH]c2ccccc12)C(=O)N[C@H](Cc1ccccc1)C(=O)N[C@@H](CCCCN)C(N)=O", "note": "[Hexarelin, His-D-2-methyl-Trp-Ala-Trp-D-Phe-Lys-NH2] (H-H[dTrp(2-Me)]AW[dF]K-NH2)", "values": [{"measurement": "effect on worsening of cardiac dysfunction", "setting": "[1]", "value": "reverse the worsening of cardiac dysfunction"}]}, {"compound": "[S,S-Spiro(Pro-Leu )]-D-Mrp-D-Trp-Phe-Lys-NH2 [peptide A]", "values": [{"measurement": "inhibition (i.e., displacement) of 125I-Tyr-Ala-His-D-Mrp-Ala-Trp-D-Phe-Lys-NH2", "setting": "human heart membranes", "value": "about 75%"}]}]}
